Measurements published in patent US20100144855A1, “APPLICATION OF SEDOISOPROSAN FOR PREPARATION OF MEDICINE FOR TREATMENT OF HUMAN HBeAg POSITIVE CHRONIC HEPATITIS B” (priority 2008, published 2010).

Key:
[1] = tested on: duck hepatitis B virus (DHBV); settings: cited from earlier work
hepatitis B virus = test: clinical trial, curative effect in HBeAg positive chronic hepatitis B patients; type: in vivo, human
Procedure: The clinical trial protocol was designed according to the randomized, double-blind and controlled principle. The clinical efficacy and the safety of sedoisoprosan for therapy on human HBeAg positive chronic hepatitis B is defined according to the changes of vivo HBV-DNA level, ALT level, vital signs, blood routine indexes, blood biochemical indexes and thyroid function indexes before and after administration and the incidence of adverse events.
The clinical trials were performed on adult chronic hepatitis B patients who were HBsAg positive, HBeAg positive and HBsAb negative, with HBV-DNA levels more than 10^5 copies/ml and increased ALT.
Patients enrolled in the clinical trials must meet all the following criteria: signature of informed consent forms; age ≧18 years and ≦65 years; HBsAg positive, HBeAg positive and HBsAb negative for over 6 months; HBV-DNA level ≧10^5 copies/ml; increase in serum ALT level in 6 months before the first administration (ULN<ALT≦10×ULN for twice, wherein ALT≧2×ULN for once); negative pregnancy tests for women of child-bearing age in 24 hours before the first administration; and effective contraception measures used during the clinical trials and within 3 months after the therapy.
Since the effective doses of sedoisoprosan for reducing serum DHBV-DNA levels of ducks infected with hepatitis B virus was 200 mg/kg and 100 mg/kg (intraperitoneal injection, twice a day), doses of sedoisoprosan for the clinical trials may be between 200 mg and 800 mg (intravenous drip, once a day). […] For the purpose of the present invention, three doses of sedoisoprosan, 200 mg, 400 mg and 800 mg in 250ml 5% glucose solution (intravenous drip, within 60 mins), were used in the clinical trials.
According to the traditional treatment for chronic hepatitis B with interferon, patients enrolled in the clinical trials were administrated with sedoisoprosan once a day continuously for 4 weeks, then 3 times a week continuously for 8 weeks.
Three doses of sedoisoprosan, 200 mg, 400 mg and 800 mg respectively, were used for treatment. Mannite of 800 mg was used for negative control.
Patients enrolled in the clinical trials were randomly divided into four groups, i.e. negative control group (800 mg mannite), low dose group (200 mg sedoisoprosan with 600 mg mannite), median dose group (400 mg sedoisoprosan with 400 mg mannite) and high dose group (800 mg sedoisoprosan) respectively. Each patient was assigned with a CRF No. which was randomly generated by computer.
Baseline assessment was performed on the day of the first administration, which included medical examination, hematological examination, blood biochemical examination, thyroid function examination, ALT examination and quantitative detection of HBV-DNA. The medical examination included the examination of stature, avoirdupois, blood pressure and pulse rate. The hematological examination included the leucocyte, neutrophil, erythrocyte, platelet and haemoglobin counts, and the prothrombin time. The blood biochemical examination included the examination of serum potassium, sodium, GOT, total bilirubin, AKP, total protein, albumin, total cholesterol, triglyceride, urea nitrogen, creatinine and glucose.
The patients were followed up at the 1st, 2nd, 4th, 8th and 12th week of the treatment. The blood biochemical examination and the quantitative detection of HBV-DNA was performed at the 2nd, 4th, 8th and 12th week of the treatment, and the adverse events were recorded at the same time. The thyroid function examination was performed at the 12th week of the treatment.
The primary curative effect index was the virologic response rate at the 12th week of the treatment, i.e. the proportion of patients having HBV-DNA levels not more than 2×10^4 copies/ml or having a decline in HBV-DNA levels of 2 log10 copies/ml compared to the baseline value. […]

[2] = animal experiments; cited from earlier work
HBsAg and HBeAg = settings: animal experiments; cited from earlier work
lymphocytes = settings: sedoisoprosan associated with ConA and LPS, in vitro; cited from earlier work
[3] = high dose group (800 mg sedoisoprosan), after 12 weeks' treatment
[4] = high dose group, after 12 weeks' treatment
[5] = low dose group (200 mg sedoisoprosan with 600 mg mannite), after 12 weeks' treatment
[6] = median dose group (400 mg sedoisoprosan with 400 mg mannite), after 12 weeks' treatment

CC1(C)OC2C3COC(CO)(O3)C(O)C2O1 (stereo not drawn) [sedoisoprosan, isopropylidene sedoheptulosan]
DHBV-DNA level ([1]; animal experiments): reduce
serum DHBV-DNA levels ([1]; ducks infected with hepatitis B virus, intraperitoneal 200 mg/kg or 100 mg/kg twice a day for 14 days, seventh and fourteenth day): obviously decreased
HBV-DNA levels, dose-effect relationship (hepatitis B virus; 200, 400, 800 mg, after 12 weeks' treatment): tended to decrease more as the doses increased
The 12th Week Decrease Values of lg(HBV-DNA), mean ± SD (hepatitis B virus; high dose group (800 mg sedoisoprosan), 16 cases): 0.96 ± 1.41
Biochemical Response Rates (hepatitis B virus; [3]): 18.75%
Combined Response Rates (hepatitis B virus; [3]): 6.25%
HBeAg Negative Conversion Rates (hepatitis B virus; [3]): 6.25%
Virologic Response Rate (hepatitis B virus; high dose group (800 mg sedoisoprosan), the 4th week, 16 cases): 0.00%
Virologic Response Rate (hepatitis B virus; high dose group (800 mg sedoisoprosan), the 8th week, 16 cases): 12.50%
Virologic Response Rate (hepatitis B virus; high dose group (800 mg sedoisoprosan), the 12th week, 16 cases): 18.75%
cases of HBeAg negative conversion (hepatitis B virus; [4]): one
decrease values of lg(HBV-DNA), comparison within the group (hepatitis B virus; [4]): significant differences
effect on hepatitis B virus (conclusion of the clinical trials) (hepatitis B virus; human HBeAg positive chronic hepatitis B): effectively inhibit hepatitis B virus
The 12th Week Decrease Values of lg(HBV-DNA), mean ± SD (hepatitis B virus; low dose group (200 mg sedoisoprosan with 600 mg mannite), 13 cases): 0.52 ± 1.28
Biochemical Response Rates (hepatitis B virus; [5]): 6.25%
Combined Response Rates (hepatitis B virus; [5]): 0%
HBeAg Negative Conversion Rates (hepatitis B virus; [5]): 0%
Virologic Response Rate (hepatitis B virus; low dose group (200 mg sedoisoprosan with 600 mg mannite), the 4th week, 13 cases): 15.38%
Virologic Response Rate (hepatitis B virus; low dose group (200 mg sedoisoprosan with 600 mg mannite), the 8th week, 13 cases): 15.38%
Virologic Response Rate (hepatitis B virus; low dose group (200 mg sedoisoprosan with 600 mg mannite), the 12th week, 13 cases): 15.38%
The 12th Week Decrease Values of lg(HBV-DNA), mean ± SD (hepatitis B virus; median dose group (400 mg sedoisoprosan with 400 mg mannite), 14 cases): 0.40 ± 0.90
Biochemical Response Rates (hepatitis B virus; [6]): 12.50%
Combined Response Rates (hepatitis B virus; [6]): 0%
HBeAg Negative Conversion Rates (hepatitis B virus; [6]): 0%
Virologic Response Rate (hepatitis B virus; median dose group (400 mg sedoisoprosan with 400 mg mannite), the 4th week, 14 cases): 0.00%
Virologic Response Rate (hepatitis B virus; median dose group (400 mg sedoisoprosan with 400 mg mannite), the 8th week, 14 cases): 0.00%
Virologic Response Rate (hepatitis B virus; median dose group (400 mg sedoisoprosan with 400 mg mannite), the 12th week, 14 cases): 14.29%
decrease values of lg(HBV-DNA), comparison within the group (hepatitis B virus; median dose group and low dose group, after 12 weeks' treatment): no significant differences
activity of ACP and TNE [2]: enhance
immune system [2]: regulate
secretion of HBsAg and HBeAg (HBsAg and HBeAg): inhibit
mitogenic activity of ConA and LPS (lymphocytes): enhance
transformation of lymphocytes (lymphocytes): promote
